Experiments:
IRTK-Grb10 interaction = target: T1, IRTK-Grb10 interaction (Homo sapiens, UniProt P06213); assay: Co-immunoprecipitation of IRTK48-RLuc with Grb10-YFP in co-transfected HEK 293T cells; format: cell-based; conditions: same experiment as with Grb14
T1 construct: a construct bearing only the tyrosine kinase domain of the luciferase-fused receptor and the Grb10 protein fused to YFP; expressed in transfected cells; host or cells: HEK 293T
Protocol: In order to test the specificity of the compound of Formula (Ia) on this IRTK-Grb14 interaction, the same experiment was conducted with HEK 293T cells co-transfected with a construct bearing only the tyrosine kinase domain of the luciferase-fused receptor and the Grb10 protein fused to YFP. Indeed, the Grb10 protein also binds to the phosphorylated insulin receptor and inhibits its catalytic activity.

PI3K/Akt pathway = assay: Luc-Akt-PH/YFP-membrane BRET in HEK293T cells (recruitment of Akt to the membrane); format: cell-based; conditions: for BRET delta (recruitment of the Akt protein to the membrane): 50 μM
Excerpt: To measure the activity of the PI3-kinase pathway by the BRET technique, HEK293T cells are transfected with plasmids allowing, on the one hand, the expression of the PH (Pleckstrin Homology) domain of the Akt protein which has been fused to the luciferase and, on the other hand, a membrane-addressing sequence which has been fused to the YFP protein. When the PH domain of Akt is recruited to the membrane by the PIP3s, an energy transfer between the luciferase that is coupled to the PH domain of Akt and the membrane YFP protein takes place. The measured BRET signal is a control of the production of PIP3s at the membrane and is a reflection of the activation of the PI-3-kinase/Akt pathway in real time on cells.

IR-Grb14 interaction = target: T2, IR-Grb14 interaction (Homo sapiens, UniProt P06213); assay: Co-immunoprecipitation of IR-Luc with Grb14-YFP in a cell-free system (Western blot); format: binding; conditions: for reduction of the amount of co-precipitated IR-Luc: dose series, results not shown
T2 construct: a vector encoding the insulin receptor fused to the luciferase (IR-Luc); made in house; host or cells: HEK293T (transfected); IR-Luc was partially purified on wheat germ lectin sepharose; Grb14-YFP was used as crude lysate
Protocol: The inhibitory effect of the compounds according to the invention on the IR-Grb14 interaction has been confirmed in co-immunoprecipitation experiments in a cell-free system. IR-Luc extracts, stimulated or not by insulin, […] before being incubated with the cellular extract containing the fusion protein Grb14-YFP for 40 minutes. Immunoprecipitation against YFP allows to analyze by Western blot the amount of receptor that has remained associated with the Grb14 protein.

HEK293T cells = assay: Growth and survival of HEK293T cells (resazurin fluorescence, 72 h); format: cell-based; conditions: 0.1% or 10% serum
Protocol: In order to study the effect of the compound of Formula (Ia) on cell growth and survival, HEK293T cells were cultured for 72 h at different serum concentrations (0.1%, 1%, 10%), in the absence or presence of compounds of Formula (Ia) (50 or 100 μM). The fluorescence of the cells was measured before and after treatment using a reagent containing resazurin. Since the intensity of fluorescence is correlated with the number of living cells, cell growth is estimated by relating the fluorescence measured at 72 h of treatment to that measured at t0. The presence of serum promotes cell growth. Thus, after 72 h, an increase in the cell population of 7 times at 0.1% of serum and of 10 times at 1 or 10% of serum is observed.

[1] = Repeat-dose toxicity study in C57Bl/6J mice; format: in vivo
Protocol: A repeat-dose toxicity study was also conducted in C57Bl/6J mice (12 males, 8 weeks old). Mice were treated daily either by gavage with 30 mg/kg/day of compound of Formula (Ia) diluted in 0.5% carboxymethylcellulose; or by intraperitoneal injection with 30 mg/kg/day of compound of Formula (Ia) diluted in DMSO, or with DMSO alone, for a period of 15 days.

[2] = test system: PEPCK and G6Pase expression; assay: Expression of neoglucogenesis genes in hepatocytes in primary culture (RT-qPCR); format: cell-based, mice; conditions: 50 μM; glucagon 10 nM; absence of insulin; 8 h
Protocol: FIG. 6, the effect of the compound of Formula (Ia) according to the invention (black bars) on the expression of insulin target genes, PEPCK (FIG. 6A) and G6Pase (FIG. 6B), involved in the neoglucogenesis pathway. Hepatocytes in primary culture are cultured for 8 h in the presence of compounds of Formula (Ia) (50 μM), insulin (1 nM) and glucagon (pre-incubation 1 h at 10 nM). The relative quantification of mRNAs is performed by RT-qPCR. The values are related to the quantification of the 18S gene in the same sample in order to normalize the results. The results are the average of 3 to 5 independent experiments (*p<0.05, **p<0.01, by Anova followed by a Newman-Keuls test).
To study the inhibitory effect of insulin on neoglucogenesis gene expression, hepatocytes from mice in primary culture were pre-incubated with 10 nM glucagon.

IRTK-Grb14 interaction = target: T3, IRTK-Grb14 interaction (Homo sapiens, UniProt P06213); assay: Co-immunoprecipitation of IRTK48-RLuc with Grb14-YFP in co-transfected HEK 293T cells; format: cell-based; conditions: 50 μM; 4 hours; no insulin
T3 construct: a construct bearing only the tyrosine kinase domain of the luciferase-fused receptor (IRTK48-RLuc); expressed in transfected cells; host or cells: HEK 293T
Protocol: HEK 293T cells co-transfected with a construct bearing only the tyrosine kinase domain of the luciferase-fused receptor (IRTK48-RLuc) and the Grb14 protein fused to YFP were incubated for 4 hours in the presence of compounds according to the invention. In the absence of α subunits, the tyrosine kinase domain of the insulin receptor spontaneously autophosphorylates, so it is not necessary to add insulin to stimulate the IRTK-Grb14 interaction.

[3] = absence of insulin, results not shown

T2 sequence (P06213 763-1382 limits assumed): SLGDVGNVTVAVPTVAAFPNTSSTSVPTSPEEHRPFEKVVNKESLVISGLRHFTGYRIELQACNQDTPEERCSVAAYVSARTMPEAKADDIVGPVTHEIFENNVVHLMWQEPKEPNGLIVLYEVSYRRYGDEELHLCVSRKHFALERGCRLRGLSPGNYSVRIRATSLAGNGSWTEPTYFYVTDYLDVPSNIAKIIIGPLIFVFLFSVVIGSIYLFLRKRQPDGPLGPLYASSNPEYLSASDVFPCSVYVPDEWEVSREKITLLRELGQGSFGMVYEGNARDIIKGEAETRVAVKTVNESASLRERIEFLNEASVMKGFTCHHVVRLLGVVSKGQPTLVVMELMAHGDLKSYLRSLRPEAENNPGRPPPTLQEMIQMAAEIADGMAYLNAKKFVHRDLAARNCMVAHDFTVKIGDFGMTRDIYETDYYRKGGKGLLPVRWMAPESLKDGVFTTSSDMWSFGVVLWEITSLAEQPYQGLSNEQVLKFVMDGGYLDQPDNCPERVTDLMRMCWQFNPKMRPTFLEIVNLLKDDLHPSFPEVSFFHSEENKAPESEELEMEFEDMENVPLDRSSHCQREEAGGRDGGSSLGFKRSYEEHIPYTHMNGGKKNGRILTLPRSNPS
T2 sequence (P06213 28-758 partner limits assumed): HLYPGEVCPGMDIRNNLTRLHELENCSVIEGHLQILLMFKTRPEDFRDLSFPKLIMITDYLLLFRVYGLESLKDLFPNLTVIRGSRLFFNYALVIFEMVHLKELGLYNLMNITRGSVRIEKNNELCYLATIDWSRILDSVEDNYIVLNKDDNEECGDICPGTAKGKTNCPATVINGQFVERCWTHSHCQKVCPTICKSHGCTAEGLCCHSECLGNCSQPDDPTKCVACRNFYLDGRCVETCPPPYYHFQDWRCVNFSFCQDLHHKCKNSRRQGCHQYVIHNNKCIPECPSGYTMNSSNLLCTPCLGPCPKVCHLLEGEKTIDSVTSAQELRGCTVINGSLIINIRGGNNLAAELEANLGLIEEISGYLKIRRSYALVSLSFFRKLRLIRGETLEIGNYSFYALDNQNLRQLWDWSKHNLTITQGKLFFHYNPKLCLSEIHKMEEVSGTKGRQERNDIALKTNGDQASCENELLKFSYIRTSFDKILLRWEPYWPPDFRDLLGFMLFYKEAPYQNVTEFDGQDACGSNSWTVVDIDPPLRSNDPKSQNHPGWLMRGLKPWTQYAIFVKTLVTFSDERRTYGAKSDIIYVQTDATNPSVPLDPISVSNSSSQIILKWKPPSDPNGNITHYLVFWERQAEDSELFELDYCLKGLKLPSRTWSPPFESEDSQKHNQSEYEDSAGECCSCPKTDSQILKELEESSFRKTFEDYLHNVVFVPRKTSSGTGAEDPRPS
T3 sequence (P06213 1023-1298 limits assumed): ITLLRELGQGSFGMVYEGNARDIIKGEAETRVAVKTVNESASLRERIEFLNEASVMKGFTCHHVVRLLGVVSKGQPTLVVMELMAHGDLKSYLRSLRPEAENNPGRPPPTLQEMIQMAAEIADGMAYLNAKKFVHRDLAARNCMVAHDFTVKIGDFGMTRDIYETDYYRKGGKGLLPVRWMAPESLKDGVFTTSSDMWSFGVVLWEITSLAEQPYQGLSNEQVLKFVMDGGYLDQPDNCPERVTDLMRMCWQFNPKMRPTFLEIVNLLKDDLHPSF
T1 sequence (P06213 1023-1298 limits assumed): as above

Cc1ccc(/C=C/C(=O)Nc2ccc(S(=O)(=O)Nc3onc(C)c3C)cc2)o1 [Ia]
amounts of tyrosine kinase domain of the insulin receptor co-immunoprecipitated with the Grb10 protein (IRTK-Grb10 interaction): does not change
BRET delta (recruitment of the Akt protein to the membrane) (PI3K/Akt pathway; absence of insulin): about 86
BRET delta (recruitment of the Akt protein to the membrane) (PI3K/Akt pathway; presence of 5 nM insulin): about 121
concentration at which the increase in the BRET signal / PI3K/Akt activation is significant (PI3K/Akt pathway; [3]): 10 µM
concentration from which the effect on the BRET signal is detectable (PI3K/Akt pathway; [3]): 5 µM
effect on the recruitment of the Akt protein to the membrane after AG1024 (PI3K/Akt pathway; cells pre-incubated 1 h with 25 μM AG1024, Ia 50 μM, insulin 5 nM): no longer have any effect
BRET delta (PI3K/Akt pathway; without insulin): 86 (+/−41)
reduction of the amount of co-precipitated IR-Luc (IR-Grb14 interaction; 25 μM): 20%
reduction of the amount of co-precipitated IR-Luc (IR-Grb14 interaction; 50 μM): 50%
inhibition at 50 µM (IR-Grb14 interaction; 50 μM, in the presence of insulin, read-out: reduction of the amount of insulin receptors associated with the Grb14 protein): 60%
cell growth rate (HEK293T cells; 50 μM): does not alter
cell growth rate (HEK293T cells; 100 μM): does not alter
liver appearance ([1]; 30 mg/kg/day by gavage or intraperitoneal injection): no difference
weight gain ([1]; 30 mg/kg/day by gavage or intraperitoneal injection, after 12 days of treatment): no difference
blood glucose level measured in the post-absorptive state ([1]; 30 mg/kg/day, regardless of the administration mode): decrease
toxic effect (overall conclusion) ([1]; HEK293T cells and repeat-dose mouse study): no detectable toxic effect
decrease in glucagon-induced G6Pase expression [2]: about 20%
decrease in glucagon-induced PEPCK expression [2]: about 20%
reduction of the amount of tyrosine kinase domain of the insulin receptor co-immunoprecipitated with the Grb14 protein (IRTK-Grb14 interaction): 75%

From patent US11020378B2, “Compounds, compositions and methods for treating insulin resistance” (UNIVERSITE PARIS DESCARTES, priority 2017, dated 2021)
